From PMC10699557, “A recombinant approach for stapled peptide discovery yields inhibitors of the RAD51 recombinase” (Chemical Science, 2023)

Test: Two-component Cys-Cys stapling with divinyltriazine (DVT): double thia-Michael addition on recombinant StrepII-GB1-peptide-His8 fusions, stepwise linker addition (pseudo-dilution), DTT quench
Details: the molecule shown is the open-chain precursor, PBS + 200 mM imidazole (2 mM linker stock in DMSO added stepwise), 0.02 mM, scale: 1 = stapled product confirmed by ESI-MS as

Substance: StrepII-GB1-...GSDP-ACGFSTASGKKLNVSCEALQKAVKLFSDIENIS-DPGS...-His8 (free Cys thiols, + DVT)
- ring closure, product found (54-membered ring): 1

Substance: StrepII-GB1-...GSDP-SCFSTASGKKLNVSCEALQKAVKLFSDIENIS-DPGS...-His8 (free Cys thiols, + DVT)
- ring closure, product found (51-membered ring): 1

Substance: StrepII-GB1-...GSDP-SSACSGFSTASGKKLNVSTEACQKAVKLFSDIENIS-DPGS...-His8 (free Cys thiols, + DVT)
- ring closure, product found (66-membered ring): 1

Substance: StrepII-GB1-...GSDP-VNSSAFSGFSTASGKKLNVSCEALQKACKLFSDIENIS-DPGS...-His8 (free Cys thiols, + DVT)
- ring closure, product found (33-membered ring): 1

Substance: StrepII-GB1-...GSDP-VNSSAFSGFSTASGKKLNVSTEALQKACKLFSDIECIS-DPGS...-His8 (free Cys thiols, + DVT)
- ring closure, product found (36-membered ring): 1
